Assay results published in patent US20080242546A1, “Synergistic herbicidal composition containing chloroacetanilides and picolinic acids” (Dow AgroSciences LLC, priority 2007, published 2008).

Assays:
POLCO = experiment: Field trial in field corn, early postemergence weed control, visual rating; assay type: in vivo, polygonum convolvulus L; conditions: early post
Procedure: (§1) Field trials were established to evaluate weed control with herbicides applied at an early postemergence timing in field corn. Each trial was conducted as a randomized complete block design with three replications of each treatment in plots that ranged in size from 2.5×6.5 meters to 3.0×8.0 meters. Herbicide treatments in these trials included: • acetochlor at 1680 g/ha • clopyralid+picloram at 93.5+23.5 g/ha • clopyralid+picloram+aminopyralid at 72+24+12 g/ha • acetochlor+clopyralid+picloram at 1680+93.5+23.5 g/ha • acetochlor+clopyralid+picloram+aminopyralid at 1680+72+24+12 g/ha These herbicide treatments were broadcast sprayed postemergence over 1 to 3 leaf corn and 1 to 2 leaf weeds. The acetochlor formulation being used also contained furilazole safener.
(§2) The degree of weed control was visually evaluated and recorded at 40 to 71 days after application as a percent of weed control. Percent control is the total injury to the plants due to all factors including: stunting, malformation, chlorosis, necrosis, inhibition of emergence, and other types of plant injury. The control ratings range from 0 to 100 percent, where 0 represents no injury and 100 represents complete kill.
(§3) The Colby method represents a direct approach to measuring the synergistic activity of two herbicides.

CHEAL = experiment: as above; assay type: in vivo, chenopodium album L; conditions: early post
Procedure: as §1, §2, §3

POLAV = experiment: as above; assay type: in vivo, polygonum aviculare; conditions: early post
Procedure: as §1, §2, §3

VIOAR = experiment: Field trial in oilseed rape, preemergence weed control, visual rating; assay type: in vivo, viola arvensis L; conditions: preemergence to weeds
Procedure: (§4) E=X+Y-(XY/100), […] Additional field trials were established to evaluate weed control with herbicides applied at an […] timing in oilseed rape, prior to any weed emergence. Each trial was conducted as a randomized complete block design with three replications of each treatment in plots that ranged in size from 2.5×5.o meters to 3.0×6.0 meters. […] The degree of weed control was visually evaluated and recorded at 55 to 68 days after application as a percent of weed control. Percent control is the total injury to the plants due to all factors including: stunting, malformation, chlorosis, necrosis, inhibition of emergence, and other types of plant injury.

GALAP = experiment: as above; assay type: in vivo, galium aparine L; conditions: preemergence to weeds
Procedure: as §4

PAPRH = experiment: as above; assay type: in vivo, papaver rhoeas L; conditions: preemergence to weeds
Procedure: as §4

[1] = 1680 g ai/ha, 40 to 71 days after application
[2] = 750 g ai/ha, 55 to 68 days after application

CCOCN(C(=O)CCl)c1c(C)cccc1CC [acetochlor, 2-chloro-N-(ethoxymethyl)-N-(2-ethyl-6-methylphenyl)acetamide]
percent of weed control (POLCO; [1]): 52%
control of POLCO in words (synergistic action / acceptable control) (POLCO): did not provide acceptable control
control of CHEAL in words (synergistic action / acceptable control) (CHEAL): did not provide acceptable control
percent of weed control (POLAV; [1]): 58%
control of POLAV in words (synergistic action / acceptable control) (POLAV): did not provide acceptable control

Cc1cccc(C)c1N(Cn1cccn1)C(=O)CCl [metazachlor, 2-chloro-N-(2,6-dimethylphenyl)-N-(1H-pyrazol-1-ylmethyl)acetamide]
percent of weed control (VIOAR; [2]): 0%
control of VIOAR in words (synergistic action / acceptable control) (VIOAR): did not provide acceptable control
percent of weed control (GALAP; [2]): 53%
control of GALAP in words (synergistic action / acceptable control) (GALAP): did not provide acceptable control
percent of weed control (PAPRH; [2]): 10%
control of PAPRH in words (synergistic action / acceptable control) (PAPRH): did not provide acceptable control
